Data reported in ChEMBL document CHEMBL1145008, “Relationship between stereochemistry and the beta3-adrenoceptor agonistic activity of 4'-hydroxynorephedrine derivative as an agent for treatment of frequent urination and urinary incontinence” (J Med Chem, 2003).

Legend:
[1] = target: Beta-1 adrenergic receptor (Rattus norvegicus) (UniProt P18090)
Description: (§1) Agonistic activity for Beta-1 adrenergic receptor was estimated from it's chronotropic effect on rat atria

[2] = target: Beta-1 adrenergic receptor (Rattus norvegicus) (UniProt P18090); remark: listed apart in the source
Description: Mean concentration required to increase basal rate of rat atria by 20 beats per minute

[3] = target: Beta-1 adrenergic receptor (Rattus norvegicus) (UniProt P18090); remark: listed apart in the source
Description: as §1

[4] = target: Beta-2 adrenergic receptor (Rattus norvegicus) (UniProt P10608); test: Agonistic activity for Beta-2 adrenergic receptor was assessed by it's inhibitory effect on spontaneous contractions in isolated rat uterus
Sequence of Beta-2 adrenergic receptor (Rattus norvegicus) (P10608 whole entry, looked up): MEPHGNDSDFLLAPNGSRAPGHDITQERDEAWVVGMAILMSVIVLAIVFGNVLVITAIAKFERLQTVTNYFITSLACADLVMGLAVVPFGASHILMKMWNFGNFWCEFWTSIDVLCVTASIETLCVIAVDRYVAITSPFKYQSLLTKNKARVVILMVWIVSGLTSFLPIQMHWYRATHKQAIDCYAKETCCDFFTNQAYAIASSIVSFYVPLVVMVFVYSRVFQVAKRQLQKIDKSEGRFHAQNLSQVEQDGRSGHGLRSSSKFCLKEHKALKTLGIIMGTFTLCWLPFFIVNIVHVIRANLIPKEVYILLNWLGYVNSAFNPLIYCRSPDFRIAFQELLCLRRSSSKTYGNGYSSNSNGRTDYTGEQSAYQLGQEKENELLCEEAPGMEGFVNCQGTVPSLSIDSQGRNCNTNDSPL

Sequence of Beta-1 adrenergic receptor (Rattus norvegicus) (P18090 whole entry, looked up): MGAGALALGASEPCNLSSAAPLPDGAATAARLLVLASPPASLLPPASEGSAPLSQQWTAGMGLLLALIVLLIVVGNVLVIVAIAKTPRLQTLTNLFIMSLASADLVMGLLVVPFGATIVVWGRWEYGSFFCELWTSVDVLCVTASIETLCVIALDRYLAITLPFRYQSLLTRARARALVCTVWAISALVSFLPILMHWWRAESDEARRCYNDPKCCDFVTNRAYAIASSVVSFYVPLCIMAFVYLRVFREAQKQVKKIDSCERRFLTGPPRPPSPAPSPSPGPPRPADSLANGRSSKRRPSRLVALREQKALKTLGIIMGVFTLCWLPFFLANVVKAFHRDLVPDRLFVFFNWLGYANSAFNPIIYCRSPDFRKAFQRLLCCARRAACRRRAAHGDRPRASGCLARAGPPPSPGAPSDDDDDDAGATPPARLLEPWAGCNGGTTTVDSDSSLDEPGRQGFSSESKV

SMILES	pEC20 [1]	EC20 [2] [µM]	pEC20 [3]	IC50 [4] [µM]
C[C@@H](NCCc1ccc(OCC(=O)O)c(Cl)c1)[C@@H](O)c1ccc(O)cc1	4.86	14	–	–
CCOC(=O)COc1ccc(CCNC(C)C(O)c2ccc(O)cc2)cc1Cl (stereo not given)	–	1.6	5.8	–
C[C@H](Cc1ccc(OCC(=O)O)cc1)NC[C@H](O)c1cccc(Cl)c1 (relative stereo)	–	–	–	0.00912
C[C@H](NCCc1ccc(OCC(=O)O)c(Cl)c1)[C@H](O)c1ccc(O)cc1	–	> 100	–	–
C[C@@H](NCCc1ccc(OCC(=O)O)c(Cl)c1)[C@H](O)c1ccc(O)cc1	–	21	4.68	–
C[C@H](NCCc1ccc(OCC(=O)O)c(Cl)c1)[C@@H](O)c1ccc(O)cc1	–	55	4.26	–
